The results in this text go back to PubChem BioAssay (NCI).

Structures are written as SMILES. Several values for one entry are separate records, joined by “and”; a condition that tells them apart may be missing. Equal entries are not always repeated.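 Method: 48-hour compound exposure of cells in 96-well plates, five concentrations, linear interpolation of endpoints. GI50 is the concentration that inhibits growth by half. TGI denotes the concentration required for complete inhibition of growth.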 A value given as a limit tells only on which side of the number the result lay.

Among the test systems are SNB-75 CNS; HCC-2998 colon; UACC-257 melanoma; NCI/ADR-RES ovarian; OVCAR-3 ovarian; SK-OV-3 ovarian; NCI-H522 lung; CAKI-1 renal; MDA-N.
Holding throughout (assay): NCI-60 cell line screen, 48 h

Regarding `Cc1cc2c(cc1Cl)SC1=NN(C)C(c3ccccc3O)N1S2(=O)=O` (configuration not stated), the GI50 with SNB-75 CNS is above 100 µM; in the experiment with HCC-2998 colon it was 65.5 µM; in the experiment on UACC-257 melanoma it was above 100 µM; with NCI/ADR-RES ovarian, 39 µM; in the experiment on OVCAR-3 ovarian it was 46 µM; with SK-OV-3 ovarian, above 100 µM. Further, the GI50 in the experiment with NCI-H522 lung and in the experiment with CAKI-1 renal was above 100 µM each time. Moreover, the TGI in the experiment on SNB-75 CNS, in the experiment with HCC-2998 colon, in the experiment with UACC-257 melanoma, in the experiment on NCI/ADR-RES ovarian, in the experiment with OVCAR-3 ovarian and in the experiment on SK-OV-3 ovarian was above 100 µM throughout. Moreover, the TGI in the experiment with NCI-H522 lung and in the experiment on CAKI-1 renal was above 100 µM each time.

Take `CC(=O)Nc1ccc(-n2cnc3cc(-c4ccc(OCCN5CCCCC5)cc4)ccc32)cc1`: the GI50 is 4.11 µM in the experiment with SNB-75 CNS; 5.98 µM with HCC-2998 colon; 5.9 µM in the experiment on UACC-257 melanoma; 7.75 µM in the experiment on NCI/ADR-RES ovarian; 5.27 µM in the experiment on OVCAR-3 ovarian; 6.2 µM in the experiment on SK-OV-3 ovarian. Further, the results for the GI50 in the experiment with NCI-H522 lung and in the experiment with CAKI-1 renal were 6.79 µM and 6.01 µM, respectively. For the same compound, the TGI came out at 8.31 µM in the experiment on SNB-75 CNS; 14.6 µM in the experiment with HCC-2998 colon; 12 µM in the experiment with UACC-257 melanoma; 22.5 µM in the experiment with NCI/ADR-RES ovarian; 10.4 µM with OVCAR-3 ovarian; 12.2 µM in the experiment on SK-OV-3 ovarian. Also, the values for the TGI in the experiment on NCI-H522 lung and in the experiment with CAKI-1 renal were 13.7 µM and 11.7 µM, respectively.

Turning to `O=C(CC(C(=O)O)N1CCOCC1)c1ccccc1` (configuration not stated), the TGI is 36.8 µM in the experiment on MDA-N; 83.4 µM with SNB-75 CNS; 27.2 µM in the experiment on UACC-257 melanoma; above 100 µM with NCI/ADR-RES ovarian; 35.7 µM in the experiment with OVCAR-3 ovarian; above 100 µM in the experiment with SK-OV-3 ovarian. Further, in the experiment on NCI-H522 lung, the TGI is above 100 µM.

For `CCCCCCCCCCCCNC(=O)[C@H]1CSC(c2ccc(OC)c(F)c2)N1` (some centres not stated), the GI50 is 0.468 µM with SNB-75 CNS; 1.75 µM with HCC-2998 colon; 1.62 µM with UACC-257 melanoma; 1.61 µM in the experiment on NCI/ADR-RES ovarian; 1.45 µM in the experiment on OVCAR-3 ovarian; 1.96 µM in the experiment with SK-OV-3 ovarian. The GI50 in the experiment with NCI-H522 lung was 1.82 µM; in the experiment on CAKI-1 renal it was 1.56 µM. Moreover, the TGI amounted to 1.01 µM in the experiment with SNB-75 CNS; 3.33 µM in the experiment with HCC-2998 colon; 3.13 µM with UACC-257 melanoma; 3.52 µM in the experiment with NCI/ADR-RES ovarian; 3.26 µM in the experiment with OVCAR-3 ovarian; 3.43 µM in the experiment with SK-OV-3 ovarian. Besides, the results for the TGI in the experiment on NCI-H522 lung and in the experiment on CAKI-1 renal were 3.64 µM and 2.94 µM, respectively.

For `COc1ccc(S(=O)(=O)NCCNc2nccc(-c3c(-c4ccccc4)nc4sccn34)n2)cc1`, the GI50 was 1.82 µM with SNB-75 CNS; 16.1 µM with HCC-2998 colon; 6.47 µM in the experiment on UACC-257 melanoma; 5.18 µM with NCI/ADR-RES ovarian; 3.56 µM in the experiment with OVCAR-3 ovarian; 4.18 µM in the experiment on SK-OV-3 ovarian. Moreover, the GI50 with NCI-H522 lung is 4.64 µM; in the experiment on CAKI-1 renal, 1.29 µM. Moreover, the TGI was 9.54 µM with SNB-75 CNS; above 100 µM with HCC-2998 colon; above 100 µM with UACC-257 melanoma; above 100 µM in the experiment with NCI/ADR-RES ovarian; above 100 µM in the experiment with OVCAR-3 ovarian; above 100 µM in the experiment with SK-OV-3 ovarian. Also, the TGI with NCI-H522 lung and in the experiment on CAKI-1 renal was above 100 µM in each case.

For `Cc1cc(N)c2ccccc2[n+]1CCCCCCCCCC[n+]1c(C)cc(N)c2ccccc21`, the GI50 in the experiment with MDA-N is 2.13 µM; in the experiment with SNB-75 CNS it was 0.212 µM and 0.249 µM; in the experiment with HCC-2998 colon, 0.253 µM; in the experiment on NCI/ADR-RES ovarian, 5.42 µM and 13.2 µM; with NCI-H522 lung, 1.38 µM; in the experiment on CAKI-1 renal it was 1.37 µM and 3.27 µM. Further, the TGI in the experiment on MDA-N was 6.08 µM and 6.72 µM; with SNB-75 CNS, 6.77 µM and 6.72 µM and 11 µM; in the experiment with HCC-2998 colon it was 4.52 µM and 2.76 µM and 9.8 µM; in the experiment on NCI/ADR-RES ovarian, > 38.5 µM and 48.5 µM and 42.9 µM; with NCI-H522 lung it was 4.01 µM and 4.43 µM; in the experiment with CAKI-1 renal, > 50 µM and 27.7 µM and 18.6 µM.

`COc1ccc(N=C2NN=C(c3c[nH]c4ccccc34)CS2)cc1OC`: the GI50 in the experiment with SNB-75 CNS is 3.34 µM; in the experiment with HCC-2998 colon, 9.57 µM; in the experiment on UACC-257 melanoma, 11.1 µM; with NCI/ADR-RES ovarian it was 3.15 µM; with OVCAR-3 ovarian, 2.87 µM; in the experiment with SK-OV-3 ovarian, 14.2 µM. For the same compound, the values for the GI50 in the experiment with NCI-H522 lung and with CAKI-1 renal were 7.17 µM and 8.05 µM, respectively. Further, the TGI in the experiment with SNB-75 CNS was 20.6 µM; in the experiment on HCC-2998 colon, above 48.3 µM; in the experiment with UACC-257 melanoma it was above 56.6 µM; in the experiment with NCI/ADR-RES ovarian, above 28 µM; in the experiment with OVCAR-3 ovarian, above 40.6 µM; in the experiment on SK-OV-3 ovarian, above 100 µM. For the same compound, the TGI is above 100 µM in the experiment on NCI-H522 lung and above 79.1 µM with CAKI-1 renal.

For the compound `CN(C)c1ccc(Sc2ccc3nc(N)nc(N)c3c2)cc1`, the GI50 was 2.14 µM in the experiment with SNB-75 CNS; 0.848 µM with HCC-2998 colon; 1.09 µM with UACC-257 melanoma; 0.743 µM in the experiment with NCI/ADR-RES ovarian; 1.56 µM in the experiment with OVCAR-3 ovarian; 2.71 µM in the experiment on SK-OV-3 ovarian. The GI50 is 0.934 µM in the experiment on NCI-H522 lung and 2.03 µM in the experiment on CAKI-1 renal. The TGI in the experiment on SNB-75 CNS was 16.3 µM; with HCC-2998 colon, 4.84 µM; in the experiment with UACC-257 melanoma, 4.91 µM; in the experiment with NCI/ADR-RES ovarian, 14.9 µM; in the experiment with OVCAR-3 ovarian, 4.59 µM; in the experiment with SK-OV-3 ovarian, 16.8 µM. The TGI in the experiment with NCI-H522 lung stood at 11.7 µM; with CAKI-1 renal it was 16.8 µM.

With `OCCCCC#Cc1ccccc1C#Cc1cnccn1`, the GI50 was 17.3 µM in the experiment with SNB-75 CNS; 33 µM in the experiment on HCC-2998 colon; 26 µM in the experiment with UACC-257 melanoma; 25.1 µM with NCI/ADR-RES ovarian; 31.3 µM with OVCAR-3 ovarian; 46.3 µM in the experiment on SK-OV-3 ovarian. In addition, the GI50 in the experiment on NCI-H522 lung was 24.5 µM; in the experiment with CAKI-1 renal, 26.4 µM. For the same compound, the TGI is 53.7 µM in the experiment with SNB-75 CNS; above 100 µM in the experiment on HCC-2998 colon; 62 µM in the experiment with UACC-257 melanoma; 92.2 µM with NCI/ADR-RES ovarian; above 100 µM in the experiment with OVCAR-3 ovarian; above 100 µM in the experiment with SK-OV-3 ovarian. Besides, the TGI is 63.7 µM in the experiment on NCI-H522 lung and above 100 µM with CAKI-1 renal.

As to `COC(=O)Nc1nc2ccc(Sc3ccc(NC(=O)Nc4cc(C(F)(F)F)ccc4F)cc3)cc2[nH]1`, the GI50 was 3.32 µM with SNB-75 CNS; 3.96 µM in the experiment with HCC-2998 colon; 4.63 µM in the experiment on UACC-257 melanoma; 2.74 µM with NCI/ADR-RES ovarian; 3.05 µM with OVCAR-3 ovarian; 5.1 µM in the experiment with SK-OV-3 ovarian. The GI50 is 2.05 µM in the experiment on NCI-H522 lung and 3.86 µM with CAKI-1 renal. Moreover, the TGI in the experiment on SNB-75 CNS worked out at 10.9 µM; in the experiment with HCC-2998 colon, 13.1 µM; in the experiment on UACC-257 melanoma, 25 µM; in the experiment with NCI/ADR-RES ovarian, 11.5 µM; in the experiment on OVCAR-3 ovarian, 6.26 µM; in the experiment with SK-OV-3 ovarian, 14.3 µM. Also, the TGI was 6.27 µM in the experiment on NCI-H522 lung and 18.8 µM in the experiment with CAKI-1 renal.
